US20240058288A1, “DRUG COCKTAIL FOR TREATMENT OF PARKINSON'S DISEASE, LEWY BODY DISEASE AND MULTIPLE SYSTEM ATROPHY” (ALETA NEUROSCIENCE, LLC, priority 2021, published 2024)

Tests used:
[1] = system: human dopaminergic neurons (iCell DopaNeurons); assay: MPP+-induced neurotoxicity: neurite outgrowth (neurite length, branch points) of iCell DopaNeurons, Incucyte; type: cell-based; settings: MPP+ 100 μM
Text: (§1) We conducted an in vitro study of the drugs in Table 1 to evaluate the neuroprotective effects of 44 conditions of treatment (Table 2, experiments 1-41; 51-53) against MPP+-induced neurodegeneration toxicity on human dopaminergic neurons (iCell® DopaNeurons: iPS cell-derived human midbrain floorplate dopaminergic neurons). Further combinations (Table 2, experiments 42-50 and Table 3) are also disclosed.
iCell DOPA neurons are neural floor plate-derived midbrain dopaminergic neurons generated from human induced pluripotent stem cells (iPSCs). Dopaminergic neurons, specifically those located in the floor plate-derived midbrain are implicated in neurological disorders such as Parkinson's disease, MSA and DLBD among others. Thus iCell DopaNeurons provide a highly relevant in vitro model to investigate these types of pathologies (42, 43). The iCellDopa neurons were supplied from FUJIFILM Cellular Dynamics.
(§2) Three different measurements were made in the experiments. 1. Neurite length in mm is a measure of increase in dendrite length of neurons. […] 2. neurite branching is measure of dendrite branching. […] 3. Cytolysis of the cells is a measure of cell death. […] Experimental conditions were measured relative to the results of healthy cells in the studies.
(§3) Procedure. iCell DOPA neurons were thawed and cultured following the provider's instructions in Brainphys medium+provided supplements+1% N2 supplement (Stemcell Technologies)+penicillin/streptomycin+Laminin. They were plated at 20000 cells per well of a 384 well plate (pre-coated with poly-D-lysine and Laminin) in 70 μL of growth medium. Cells were incubated at 37° C./5% CO2 in a humidified cell culture incubator. Half of the culture medium was changed twice a week.
(§4) MPP+-induced neurotoxicity: 24 hours after neuronal plating, half of the medium was removed and the test compounds were applied with MPP+ treatment, both concentrated at 4×, were added to the wells. For each condition, six aliquots were added, corresponding to columns A-F in Table 2. Except for the NT/NT row, in each row, either the compound indicated dissolved in its vehicle noted in Table 1 was added, or only a vehicle was added as indicated. Column F is an indicator of whether MPP+ was added. If not, only the medium was added.
(§5) For the evaluation of conditions 1-28, Neurite outgrowth was followed for subsequent 48 hours using an Incucyte Zoom platform with one phase contrast image every 4 hours, using a 20× objective. After 48 hours, the medium containing test compounds and MPP+ was removed and replaced by fresh medium containing a fluorescent cytolysis marker (red fluorescence) and a live cell marker (green fluorescence). For the evaluation of conditions 29-53, Neurite outgrowth was followed similarly for subsequent 72 hours after MPP+ was added.
Each condition 1-41 and 51-53 was repeated in 8 wells of a 384 well plate, that is, each test condition studied in Table 2 was repeated eight times. NT/NT were cells in the standard medium only. Control/NT are the cells in the vehicle (as described above), with and without MPP+.
Assay endpoints and data analysis. Phase contrast images were analyzed at each time point to determine the neurite length and number of branch points per mm^2. Kinetic data was plotted and kinetics were normalized by subtracting the value of the first data point (at time of treatment), allowing to measure changes in neurite outgrowth only from the onset of the treatment, starting at zero. Area Under Curve (AUC) of kinetic data was obtained and used for plotting compound's effects and perform statistical analyzes.
(§6) Statistical analysis. We used one-way ANOVA followed by Bonferroni's multiple comparisons test.

[2] = PD patients, small double-blind placebo controlled trial; cited from earlier work
[3] = system: human dopaminergic neurons (iCell DopaNeurons); assay: MPP+-induced neurotoxicity: cytolysis of iCell DopaNeurons; type: cell-based; settings: MPP+ 100 μM; Table 8.2 (FIG. 7C); PCI 30 μM
Text: as §1, §2, §3, §4, §5
Data was normalized to control conditions as there is basal cytolysis in the cell culture after thawing.
Fluorescently immuno-stained cells were imaged on a high content imaging platform. Individual segmentation of cells was performed by image analysis of the MAP2 and NeuN staining. The number of neurons and the neurite length were measured. The percentage of cytolyzed cells was also calculated.
as §6

**Q.** What does the source list for `Cc1c(O)c(=O)ccn1C` [DFP, Deferiprone]?
**A.** Neurite Length Data, Mean ± S.D. ([1]; Table 5.1 (FIG. 5A), conditions 17-28, AUC of kinetic data): 874.5 ± 190.4 mm/mm^2; Neurite Branching Data, Mean ± S.D. ([1]; Table 5.2 (FIG. 5B), conditions 17-28, AUC of kinetic data): 24282.5 ± 6612.9 per mm^2; Neurite length, plate 2, Mean ± S.D. ([1]; Table 6.2 (FIG. 7A), followed 72 hours, PCI 30 μM): 1303.0 ± 378.7 mm/mm^2; Neurite Branching Data, Plate 2, Mean ± S.D. ([1]; Table 7.2 (FIG. 7B), followed 72 hours, PCI 30 μM): 51711.3 ± 15178.4 per mm^2; effects on neurite outgrowth ([1]; vs MPP+ alone): no significant effects; substantia nigra iron deposits (MRI) and motor scores of disease progression [2]: showed improvement; Cytolysis, %, Plate 2, Mean ± S.D. [3]: 71.91 ± 1.28%
